Values joined by “and” are separate entries in the source; they are usually repeats but may differ in a detail not shown here. Equal values may be shown once.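 Dose response: 5 concentrations. Exposure: 48 h. Format: 96-well plates. Endpoint: linear interpolation; highest concentration if not reached. GI50 marks 50% less growth. At the TGI there is no net growth.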
What was measured:
Assay in all cases: NCI-60 cell line screen, 48 h
ACHN renal = test system: ACHN renal
RXF 393 renal = test system: RXF 393 renal
U251 CNS = test system: U251 CNS
K-562 leukemia = test system: K-562 leukemia
NCI-H23 lung = test system: NCI-H23 lung
RPMI-8226 leukemia = test system: RPMI-8226 leukemia
HOP-92 NSCLC = test system: HOP-92 NSCLC
SF-268 CNS = test system: SF-268 CNS
786-0 renal = test system: 786-0 renal
NCI-H226 lung = test system: NCI-H226 lung

| Structure (SMILES) | GI50 (ACHN renal) | TGI (ACHN renal) | GI50 (RXF 393 renal) | TGI (RXF 393 renal) | GI50 (U251 CNS) | TGI (U251 CNS) | GI50 (K-562 leukemia) | TGI (K-562 leukemia) | GI50 (NCI-H23 lung) | TGI (NCI-H23 lung) | GI50 (RPMI-8226 leukemia) | TGI (RPMI-8226 leukemia) | GI50 (HOP-92 NSCLC) | TGI (HOP-92 NSCLC) | GI50 (SF-268 CNS) | TGI (SF-268 CNS) | GI50 (786-0 renal) | TGI (786-0 renal) | GI50 (NCI-H226 lung) | TGI (NCI-H226 lung) |
| --- | --- | --- | --- | --- | --- | --- | --- | --- | --- | --- | --- | --- | --- | --- | --- | --- | --- | --- | --- | --- |
| Cn1ncc2c(Nc3ccc(Br)cc3)nc(Nc3ccc(Br)cc3)nc21 | 3.74 µM | 13 µM | 2.81 µM | 7.57 µM | 2.89 µM | 10 µM | 1.59 µM | 4.3 µM | 3.63 µM | 16.2 µM | 2.4 µM | 8.87 µM | 1.66 µM | 5.23 µM | 5.11 µM | 15.8 µM | 2.4 µM | 5.32 µM | 2.62 µM | 13.4 µM |
| CS(=O)(=O)c1nccc(-c2c(-c3cccc(OCc4ccc(F)cc4)c3)nc3sccn23)n1 | 50.1 µM | > 100 µM | 21.7 µM | > 100 µM | 33.1 µM | > 100 µM | 6.67 µM | > 100 µM | 11.7 µM | > 100 µM | 5.16 µM | > 51 µM | 11.1 µM | > 100 µM | 40.1 µM | > 100 µM | 16.8 µM | > 100 µM | 21.6 µM | > 100 µM |
| Cc1c(Cl)cccc1NC(=O)CC1Sc2ccccc2NC1=O (stereo unspecified) |  | 63.6 µM and 69.8 µM |  | 28 µM and 41.6 µM |  | 34.9 µM and 33.6 µM |  | 99.7 µM and > 100 µM |  | 70 µM and > 100 µM |  | > 100 µM |  | 42.9 µM and 64 µM | 18.4 µM and 37.1 µM | 46.6 µM and > 100 µM |  | 50.9 µM and 31.7 µM |  | 41.7 µM and 54.8 µM |
| COc1ccc(CNc2cc(OC)cc(OC)c2)cc1 |  | > 100 µM |  | > 100 µM |  | > 100 µM |  | > 100 µM |  | > 100 µM |  | > 100 µM |  | > 100 µM |  | > 100 µM |  | > 96.2 µM |  | > 100 µM |
| O=S(=O)(c1cccc(C(F)(F)F)c1)N1c2ccccc2-n2cccc2C1c1cccnc1 (stereo unspecified) |  | > 74.1 µM |  | > 53.9 µM |  | > 53.1 µM |  | > 86.4 µM |  | > 100 µM |  | > 57.7 µM |  | > 67.7 µM |  | > 66 µM |  | > 62.3 µM |  | > 53 µM |
| CS(=O)(=O)NNS(=O)(=O)c1ccc(Br)cc1 |  | > 100 µM |  | > 100 µM |  | > 100 µM |  | > 100 µM |  | > 100 µM |  | > 100 µM |  | > 100 µM |  | > 100 µM |  | > 100 µM |  | > 100 µM |
| CCCC[C@@H]1NC(=O)[C@H](CCCCN)NC(=O)[C@H](CCCNC(=N)N)NC(=O)[C@H](CC(C)C)NC(=O)[C@@H](NC(=O)[C@H](Cc2cccc(Cl)c2)NC(=O)[C@@H]2CCCN2C(=O)[C@@H](NC(C)=O)C(C)C)CCSSC[C@@H](C(=O)N[C@@H](CCCCN)C(=O)N2CCC[C@H]2C(=O)N2CCC[C@H]2C(=O)N[C@@H](CCC(=O)O)C(N)=O)NC(=O)[C@H](Cc2ccccc2)NC(=O)[C@H](CO)NC(=O)[C@H](C)NC(=O)[C@@H]2CCCN2C1=O | > 50 µM | > 50 µM | > 50 µM | > 50 µM | > 50 µM | > 50 µM | > 50 µM | > 50 µM | > 50 µM | > 50 µM | > 50 µM | > 50 µM | > 50 µM | > 50 µM | > 50 µM | > 50 µM | > 50 µM | > 50 µM | > 50 µM | > 50 µM |

Source: PubChem BioAssay (NCI)
